In PMC9030254, “Target Hopping from Protein Kinases to PXR: Identification of Small-Molecule Protein Kinase Inhibitors as Selective Modulators of Pregnane X Receptor from TüKIC Library” (Cells, 2022):

Columns and labels:
Assay in all cases: Kinase profiling
Format in all cases: biochemical
[1] = target: T1, PDK1 (Homo sapiens, UniProt O15530)
T1 construct: purchased ProQinase (Freiburg, Germany)
T1 sequence (O15530 1-556): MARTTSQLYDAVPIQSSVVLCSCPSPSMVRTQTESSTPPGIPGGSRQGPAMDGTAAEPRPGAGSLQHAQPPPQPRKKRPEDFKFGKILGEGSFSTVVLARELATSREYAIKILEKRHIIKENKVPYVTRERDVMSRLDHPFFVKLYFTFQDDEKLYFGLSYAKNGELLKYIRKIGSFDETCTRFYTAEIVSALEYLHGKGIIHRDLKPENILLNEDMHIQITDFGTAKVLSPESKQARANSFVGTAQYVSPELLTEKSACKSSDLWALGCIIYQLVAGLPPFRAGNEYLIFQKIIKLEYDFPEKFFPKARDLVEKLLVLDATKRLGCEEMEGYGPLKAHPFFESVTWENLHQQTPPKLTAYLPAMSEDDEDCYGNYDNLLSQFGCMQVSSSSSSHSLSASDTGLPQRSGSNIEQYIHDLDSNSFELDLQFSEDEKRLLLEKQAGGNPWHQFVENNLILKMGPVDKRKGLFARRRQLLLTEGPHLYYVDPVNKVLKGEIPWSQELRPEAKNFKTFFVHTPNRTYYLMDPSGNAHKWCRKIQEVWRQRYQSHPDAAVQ
Description: (§1) The analysis was performed by ProQinase (Freiburg, Germany).

[2] = target: T2, MARK3 (Homo sapiens, UniProt P27448)
T2 construct: purchased ProQinase (Freiburg, Germany)
T2 sequence (P27448 whole entry): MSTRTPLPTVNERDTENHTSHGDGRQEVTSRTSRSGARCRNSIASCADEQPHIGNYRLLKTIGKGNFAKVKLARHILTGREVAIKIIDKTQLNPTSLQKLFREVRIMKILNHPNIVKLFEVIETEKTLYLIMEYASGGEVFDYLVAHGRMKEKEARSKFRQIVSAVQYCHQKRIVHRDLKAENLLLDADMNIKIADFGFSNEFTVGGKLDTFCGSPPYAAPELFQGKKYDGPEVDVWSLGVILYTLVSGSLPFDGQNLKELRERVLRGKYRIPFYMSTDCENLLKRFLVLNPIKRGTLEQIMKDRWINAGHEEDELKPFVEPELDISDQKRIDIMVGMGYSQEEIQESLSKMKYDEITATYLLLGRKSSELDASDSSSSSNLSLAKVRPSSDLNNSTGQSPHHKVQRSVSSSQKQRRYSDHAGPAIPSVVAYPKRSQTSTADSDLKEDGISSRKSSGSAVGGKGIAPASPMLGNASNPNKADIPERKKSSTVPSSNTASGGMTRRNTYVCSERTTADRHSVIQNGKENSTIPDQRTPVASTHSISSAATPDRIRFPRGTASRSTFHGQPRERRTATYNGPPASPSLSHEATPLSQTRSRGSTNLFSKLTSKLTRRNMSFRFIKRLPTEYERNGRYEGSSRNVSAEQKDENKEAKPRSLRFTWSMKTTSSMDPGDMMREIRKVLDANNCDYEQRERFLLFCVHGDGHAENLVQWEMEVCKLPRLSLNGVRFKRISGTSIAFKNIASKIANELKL
Description: as §1

[3] = target: T3, EPHB1 (Homo sapiens, UniProt P54762)
T3 construct: purchased ProQinase (Freiburg, Germany)
T3 sequence (P54762 18-984): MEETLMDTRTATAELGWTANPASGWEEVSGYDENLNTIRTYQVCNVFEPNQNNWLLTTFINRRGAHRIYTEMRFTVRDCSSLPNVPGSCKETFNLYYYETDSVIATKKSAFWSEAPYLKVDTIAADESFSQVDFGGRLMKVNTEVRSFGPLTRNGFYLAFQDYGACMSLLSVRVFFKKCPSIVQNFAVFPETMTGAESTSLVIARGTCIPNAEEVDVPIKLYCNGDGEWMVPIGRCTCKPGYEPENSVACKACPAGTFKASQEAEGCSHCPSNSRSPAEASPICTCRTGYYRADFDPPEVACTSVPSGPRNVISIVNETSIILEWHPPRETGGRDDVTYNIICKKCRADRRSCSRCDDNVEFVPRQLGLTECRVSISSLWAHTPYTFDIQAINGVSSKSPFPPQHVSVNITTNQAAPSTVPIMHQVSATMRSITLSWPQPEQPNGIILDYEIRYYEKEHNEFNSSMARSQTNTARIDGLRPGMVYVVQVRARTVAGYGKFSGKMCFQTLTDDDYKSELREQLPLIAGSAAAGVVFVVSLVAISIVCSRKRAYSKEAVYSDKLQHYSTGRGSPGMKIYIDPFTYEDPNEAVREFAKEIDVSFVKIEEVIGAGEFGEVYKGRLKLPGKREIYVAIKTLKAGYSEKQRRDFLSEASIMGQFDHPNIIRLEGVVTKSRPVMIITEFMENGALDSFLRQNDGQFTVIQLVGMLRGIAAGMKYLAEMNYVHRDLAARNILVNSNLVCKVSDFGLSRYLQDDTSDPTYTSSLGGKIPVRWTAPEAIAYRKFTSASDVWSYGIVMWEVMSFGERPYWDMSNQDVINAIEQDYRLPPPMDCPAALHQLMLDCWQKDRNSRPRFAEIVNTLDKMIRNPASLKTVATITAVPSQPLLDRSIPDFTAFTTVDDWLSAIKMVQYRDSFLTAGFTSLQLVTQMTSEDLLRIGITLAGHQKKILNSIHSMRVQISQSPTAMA
Description: as §1

[4] = target: T4, MARK4 (Homo sapiens, UniProt Q96L34)
T4 construct: purchased ProQinase (Freiburg, Germany)
T4 sequence (Q96L34 1-752): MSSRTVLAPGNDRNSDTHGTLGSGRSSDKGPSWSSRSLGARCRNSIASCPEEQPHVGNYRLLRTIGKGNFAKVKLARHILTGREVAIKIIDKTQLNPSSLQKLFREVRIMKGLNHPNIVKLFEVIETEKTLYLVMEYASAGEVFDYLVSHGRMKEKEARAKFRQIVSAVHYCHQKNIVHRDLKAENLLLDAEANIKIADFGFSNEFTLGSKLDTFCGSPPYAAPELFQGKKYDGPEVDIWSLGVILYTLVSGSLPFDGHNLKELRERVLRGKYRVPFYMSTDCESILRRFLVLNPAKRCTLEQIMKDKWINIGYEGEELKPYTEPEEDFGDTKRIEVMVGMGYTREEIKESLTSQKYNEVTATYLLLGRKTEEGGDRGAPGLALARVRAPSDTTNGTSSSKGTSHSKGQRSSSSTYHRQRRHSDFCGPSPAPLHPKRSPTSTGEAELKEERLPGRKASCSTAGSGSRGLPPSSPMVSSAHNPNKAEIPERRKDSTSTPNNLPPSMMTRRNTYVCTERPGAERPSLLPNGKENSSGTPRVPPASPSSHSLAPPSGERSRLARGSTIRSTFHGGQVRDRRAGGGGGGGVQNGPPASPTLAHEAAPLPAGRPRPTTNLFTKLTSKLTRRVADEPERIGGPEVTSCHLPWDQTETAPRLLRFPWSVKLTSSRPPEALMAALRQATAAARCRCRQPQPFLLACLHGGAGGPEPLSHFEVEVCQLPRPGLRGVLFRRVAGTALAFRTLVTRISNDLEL
Description: as §1

[5] = target: T5, MAP4K4 (Homo sapiens, UniProt O95819)
T5 construct: purchased ProQinase (Freiburg, Germany)
T5 sequence (O95819 whole entry): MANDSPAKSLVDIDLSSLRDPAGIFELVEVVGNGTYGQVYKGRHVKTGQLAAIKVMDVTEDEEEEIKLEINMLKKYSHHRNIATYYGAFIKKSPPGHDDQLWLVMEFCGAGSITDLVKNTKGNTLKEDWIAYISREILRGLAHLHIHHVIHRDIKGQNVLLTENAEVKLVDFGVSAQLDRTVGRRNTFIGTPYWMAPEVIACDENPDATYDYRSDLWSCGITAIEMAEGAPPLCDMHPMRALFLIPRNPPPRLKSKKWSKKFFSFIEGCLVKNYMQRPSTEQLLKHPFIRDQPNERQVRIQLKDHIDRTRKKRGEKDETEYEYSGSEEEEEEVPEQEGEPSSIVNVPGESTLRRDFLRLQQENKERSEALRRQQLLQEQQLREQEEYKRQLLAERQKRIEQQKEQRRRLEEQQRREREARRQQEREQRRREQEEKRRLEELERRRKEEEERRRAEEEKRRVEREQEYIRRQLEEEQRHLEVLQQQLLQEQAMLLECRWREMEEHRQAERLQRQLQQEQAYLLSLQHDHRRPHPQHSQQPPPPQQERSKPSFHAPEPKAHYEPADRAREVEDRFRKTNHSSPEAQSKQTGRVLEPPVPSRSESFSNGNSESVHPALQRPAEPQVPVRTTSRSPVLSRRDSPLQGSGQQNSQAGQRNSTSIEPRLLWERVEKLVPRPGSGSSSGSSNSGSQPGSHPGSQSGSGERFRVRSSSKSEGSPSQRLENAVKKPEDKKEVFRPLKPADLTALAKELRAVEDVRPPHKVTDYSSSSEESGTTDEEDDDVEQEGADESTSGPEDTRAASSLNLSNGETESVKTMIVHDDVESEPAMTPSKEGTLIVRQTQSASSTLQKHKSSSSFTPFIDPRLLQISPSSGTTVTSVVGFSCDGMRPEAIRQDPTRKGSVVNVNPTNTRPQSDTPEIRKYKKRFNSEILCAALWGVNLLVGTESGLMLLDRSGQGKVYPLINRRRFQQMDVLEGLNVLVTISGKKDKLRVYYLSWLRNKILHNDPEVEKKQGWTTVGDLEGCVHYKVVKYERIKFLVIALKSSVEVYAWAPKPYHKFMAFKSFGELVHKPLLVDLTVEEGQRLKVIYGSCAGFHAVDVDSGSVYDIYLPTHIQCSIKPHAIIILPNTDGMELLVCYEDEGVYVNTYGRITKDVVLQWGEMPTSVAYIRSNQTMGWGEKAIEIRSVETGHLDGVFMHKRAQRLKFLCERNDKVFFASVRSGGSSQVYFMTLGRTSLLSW
Description: as §1

[6] = target: T6, PKA (Homo sapiens, UniProt P17612)
T6 construct: purchased ProQinase (Freiburg, Germany)
Description: as §1

[7] = target: T7, CK1gamma3 (Homo sapiens, UniProt Q9Y6M4)
T7 construct: purchased ProQinase (Freiburg, Germany)
T7 sequence (Q9Y6M4 whole entry): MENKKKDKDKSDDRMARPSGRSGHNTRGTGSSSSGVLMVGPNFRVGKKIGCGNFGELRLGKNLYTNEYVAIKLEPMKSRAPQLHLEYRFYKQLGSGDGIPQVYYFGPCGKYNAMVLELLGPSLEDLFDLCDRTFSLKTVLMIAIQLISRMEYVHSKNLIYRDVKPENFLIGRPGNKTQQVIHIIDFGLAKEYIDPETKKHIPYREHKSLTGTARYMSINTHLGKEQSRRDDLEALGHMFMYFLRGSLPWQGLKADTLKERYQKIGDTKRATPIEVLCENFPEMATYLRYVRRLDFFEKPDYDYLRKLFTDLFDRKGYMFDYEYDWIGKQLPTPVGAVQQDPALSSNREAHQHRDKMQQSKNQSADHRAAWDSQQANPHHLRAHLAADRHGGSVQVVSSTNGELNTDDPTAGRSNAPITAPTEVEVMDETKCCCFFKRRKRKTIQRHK
Description: as §1

With `O=C(Cc1ccccc1)Nc1ccc(F)c(Nc2ccc3c(c2)CCCCC3=O)c1` [Compound 100] the Residual activity ([1]; 1.0E-05 M) was 57 % of control, the Residual activity ([1]; 1.0E-06 M) was 102 % of control and the Residual activity ([2]; 1.0E-05 M) was 103 % of control. For the same molecule, the Residual activity ([2]; 1.0E-06 M) was 106 % of control, the Residual activity ([3]; 1.0E-05 M) was 103 % of control and the Residual activity ([3]; 1.0E-06 M) was 113 % of control. The Residual activity ([4]; 1.0E-05 M) was 94 % of control, the Residual activity ([4]; 1.0E-06 M) was 99 % of control and the Residual activity ([5]; 1.0E-05 M) was 95 % of control. The Residual activity ([5]; 1.0E-06 M) was 89 % of control, the inhibition at 10 µM [6] was no less than 50% and the Residual activity ([6]; 1.0E-05 M) was 21 % of control. For the same molecule, the Residual activity ([6]; 1.0E-06 M) was 97 % of control, the Residual activity ([7]; 1.0E-05 M) was 105 % of control and the Residual activity ([7]; 1.0E-06 M) was 101 % of control.
In the case of `O=C(Nc1ccc(F)c(Nc2ccc3c(c2)CCCCC3=O)c1)c1cccc(F)c1` [Compound 109], the Residual activity ([1]; 1.0E-05 M) is reported as 80 % of control, the Residual activity ([1]; 1.0E-06 M) is reported as 98 % of control and the Residual activity ([2]; 1.0E-05 M) is reported as 105 % of control. For the same molecule, the Residual activity ([2]; 1.0E-06 M) was 102 % of control, the Residual activity ([3]; 1.0E-05 M) was 95 % of control and the Residual activity ([3]; 1.0E-06 M) was 113 % of control. For the same molecule, the Residual activity ([4]; 1.0E-05 M) was 91 % of control, the Residual activity ([4]; 1.0E-06 M) was 102 % of control and the Residual activity ([5]; 1.0E-05 M) was 85 % of control. For the same molecule, the Residual activity ([5]; 1.0E-06 M) was 94 % of control, the inhibition at 10 µM [6] was no less than 50% and the Residual activity ([6]; 1.0E-05 M) was 49 % of control. The Residual activity ([6]; 1.0E-06 M) was 86 % of control, the inhibition at 10 µM ([7]; 10 µM, read-out: inhibition of CK1-γ3) was no less than 50% and the Residual activity ([7]; 1.0E-05 M) was 32 % of control. For the same molecule, the Residual activity ([7]; 1.0E-06 M) was 79 % of control.
